Test [1] has as its system RWLeu4. The experiment in a line: Concentration required to decrease [3H]thymidine incorporation by 50 percent in RWLeu4 CML cell line as compared to untreated cells was determined. In kind it is functional, cell-based. The settings on record: Homo sapiens.
Test [2] has as its system RWLeu4. Description: Change in cell surface marker (CD11b) along monocyte-macrophage pathway on RWLeu-4 cells; value represents the percentage of total cells positive for CD11b marker. In kind it is functional, Homo sapiens.
In test [3] the test system is RWLeu4. Description: Change in cell surface marker (CD4) along monocyte-macrophage pathway on RWLeu-4 cells; value represents the percentage of total cells positive for CD4 marker. It counts as functional, Homo sapiens.

Compound `C=C1/C(=C\C=C2/CCC[C@]3(C)[C@@H]([C@H](C)/C=C/C(O)(CO)C(C)(C)O)CC[C@@H]23)C[C@@H](O)C[C@@H]1O` (stereo partly specified) showed a half-inhibitory concentration (IC50) in the test with RWLeu4 [1] greater than 100 nM.

In the case of `C=C1/C(=C\C=C2/CCC[C@]3(C)[C@@H]([C@H](C)/C=C/C(C)C(C)(C)O)CC[C@@H]23)C[C@@H](O)C[C@@H]1O` (stereo partly specified), the Cells positive in the test with RWLeu4 [2] was 88%; in the test with RWLeu4 [3], 15%. Besides, in the test on RWLeu4 [1], the IC50 was 13 nM.

In the case of `C=C1/C(=C\C=C2/CCC[C@@]3(C)C2CC[C@@H]3[C@H](C)/C=C/C(C)(O)C(C)(O)CO)C[C@@H](O)C[C@@H]1O` (stereo partly specified), inhibition in the test on RWLeu4 [1] was half-maximal at 11 nM (IC50).

In the case of `C=C1/C(=C\C=C2/CCC[C@@]3(C)C2CC[C@@H]3[C@H](C)/C=C/C(C)C(C)(O)CO)C[C@@H](O)C[C@@H]1O` (stereo partly specified), the Cells positive in the test with RWLeu4 [2] is recorded as 89%; in the test with RWLeu4 [3], 21%. In the test with RWLeu4 [1], this compound yielded an IC50 of 8 nM.

In the test on RWLeu4 [1], `C=C1/C(=C\C=C2/CCC[C@@]3(C)C2CC[C@@H]3[C@H](C)/C=C/C(C)(O)C(C)(C)O)C[C@@H](O)C[C@@H]1O` (stereo partly specified) returned an IC50 of 11 nM.

The compound `C=C1/C(=C\C=C2/CCC[C@]3(C)[C@@H]([C@H](C)CC[C@@H](O)C(C)(C)O)CC[C@@H]23)C[C@@H](O)C[C@@H]1O` came in with a 50% inhibitory concentration (IC50) in the test with RWLeu4 [1] of 11 nM.

Take `C=C1/C(=C\C=C2/CCC[C@]3(C)[C@@H]([C@H](C)/C=C/C(CO)C(C)(C)O)CC[C@@H]23)C[C@@H](O)C[C@@H]1O` (stereo partly specified): the IC50 with RWLeu4 [1] was 96 nM.

Values taken from ChEMBL document CHEMBL1126545, “Metabolism and biological activity of 1,25(OH)2D2 and its metabolites in a chronic myelogenous leukemia cell line, rwleu-4” (Bioorg Med Chem Lett, 1993).
